Measurements: paper PMC7746380, “In vitro and in vivo efficacy of the novel oral proteasome inhibitor NNU546 in multiple myeloma” (Aging (Albany NY), 2020)

Tests used:
[1] = Microsomal stability, human liver microsomes; format: in vitro ADME; conditions: pooled human liver microsomes, 1 μM compound, 37 °C
Protocol: (§1) Microsomal stabilities were determined by incubating 1 μM of the test compounds with rat, mouse, dog, monkey or human liver microsomes (Xenotech, USA) for different durations at 37 °C. Clearance and T1/2 were calculated by measuring the remaining percentage of test compounds at different time-points. Liquid chromatography/mass spectrometry (Xevo Quadrupole Time-of-Flight Mass Spectrometer; Waters) and an ACQUITY High-Performance Liquid Chromatography (HPLC) system ([…]) were used to determine the relative peak area for the parent compounds.
(§2) Antipyrine and testosterone (5 μM each)
(§3) were used as positive and negative controls, respectively. Abbreviations: t = time; CLint, intrinsic clearance. […]

[2] = Microsomal stability, rat liver microsomes; format: in vitro ADME; conditions: pooled rat liver microsomes, 1 μM compound, 37 °C
Protocol: as §1, §2, §3

[3] = Microsomal stability, mouse liver microsomes; format: in vitro ADME; conditions: pooled mouse liver microsomes, 1 μM compound, 37 °C
Protocol: as §1, §2, §3

[4] = test system: NF-κB/luciferase 293T cells; assay: NF-κB inhibition assay (luciferase reporter, TNF-α stimulated); format: cell-based; conditions: Homo sapiens, HEK-293T; 6 h pre-treatment, then 10 ng/ml TNF-α for 18 h; read from Figure 3K
Protocol: To determine the inhibition of NF-κB signaling, the transfected NF-κB/luciferase 293T cells were pre-treated with various concentrations of NNU219 or bortezomib for 6 h and then stimulated with 10 ng/ml of tumor necrosis factor-α (TNF-α) for 18 h, followed by measurement of luciferase activity by using the Dual-Luciferase® Reporter Assay System (Promega Corp., Madison, WI, USA) as previously described.

[5] = test system: ARH77 xenograft; assay: ARH77 MM xenograft model; format: in vivo, mice; conditions: BIW, 3 weeks
Protocol: For the ARH77 xenograft model, female BNX mice (n=5; 5-7 weeks old; Shanghai Sippr-BK laboratory Animal Co. Ltd.) were implanted with 5×10^6 of ARH77 cells in Matrigel (1:1) and randomized into treatment and vehicle groups when the mean tumor volume (MTV) reached 100-150 mm^3. For the intravenous treatment groups, mice were treated with bortezomib (1 mg/kg, BIW) or NNU219 (0.4 mg/kg, BIW), respectively. For i.g. administration, mice were treated with ixazomib (5 mg/kg, BIW) and NNU546 (1 mg/kg, QD) or NNU546 (2 mg/kg, QOD). Tumors were measured twice a week and the tumor volume was calculated using the following formula: 0.5 × (length × width^2).

[6] = test system: 20S proteasome (CT-L, C-L, T-L activities) in whole blood; assay: In vivo proteasome activity in whole blood; parameters: species or system mice; conditions: 48 h after dose
Protocol: For the cellular proteasome activity assays, cells were treated with concentrations of compounds (0-10 μM) for 1 h at 37 °C and the CT-L, C-L and T-L activities of proteasome were evaluated by using the Proteasome-Glo assay reagents (Promega Corp. Madison, WI, USA) according to the manufacturer's protocol. For determination of recovery of cellular proteasome activity, cells were treated with the compounds for 1 h and then washed thrice in PBS to remove the compounds. Cells were incubated in fresh medium for an additional 4, 24 or 72 h at 37 °C. […] Blood samples were collected after 1 h, and whole blood cells were then analyzed for proteasome activity as previously described.
For the pharmacodynamic study, female BNX mice (n=6; 5-7 weeks old; Shanghai Sippr-BK laboratory Animal Co. Ltd.) were given one single dose of NNU219 (0.4 mg/kg) and bortezomib (1 mg/kg) by i.v. administrations or NNU546 (2-15 mg/kg) by oral gavage. […] Tissue homogenates and cell lysates were removed by centrifugation and supernatants were collected for protein quantitation and proteasome activity determination using the Proteasome-Glo assay reagents as described above.

[7] = test system: patient-derived primary human MM xenografts; assay: Patient-derived MM xenograft (PDX) model in NCG mice; format: in vivo; conditions: 5 mg/kg i.g., BIW, 3 weeks
Text: The PDX model was generated from biopsies of patients with MM brain manifestation at the Department of Hematology, the 1st Affiliated Hospital of Nanjing Medical University. Freshly excised tumor tissue specimens were washed and cut into 2.5×2.5×2.5 mm^3 pieces in antibiotic-containing L-15 medium. Under anesthesia with pentobarbital, 4-6 weeks-old male NCG mice (n=6; Model Animal Research Center of Nanjing University) were subcutaneously transplanted with the tumor pieces. Tumors were harvested when their size reached 500 mm^3 (Px1 xenografts). Tumor tissue from Px1 xenograft mice was divided into small pieces and then implanted again subcutaneously as described above to obtain Px2 xenografts. This process was once more and the experiments were performed on Px3 xenograft mice, which were randomized into treatment groups when tumor volume reached 100-150 mm^3. Mice were orally administered with ixazomib (5 mg/kg, i.g., BIW) or NNU546 (1 mg/kg, QD). Tumors were measured twice a week.

Structure (SMILES): CC(C)C[C@H](NC(=O)[C@H](Cc1ccccc1)NC(=O)c1cnccn1)B(O)O [bortezomib]
- CLint scaled at 1 μM [1]: 58.3 mL/min/kg
- half-life at 1 μM [1]: 21.4 min
- CLint scaled at 1 μM [2]: 200 mL/min/kg
- half-life at 1 μM [2]: 12.4 min
- CLint scaled at 1 μM [3]: 509 mL/min/kg
- half-life at 1 μM [3]: 10.7 min
- IC50 [4]: 18.8 nM
- reduction of tumor volume ([5]; 1 mg/kg i.v.): 24.9%
- proteasome inhibition in whole blood at 48 h [6]: only minimal or no inhibition

Structure (SMILES): CC(C)C[C@H](NC(=O)CNC(=O)c1cc(Cl)ccc1Cl)B(O)O [ixazomib]
- reduction of tumor progression ([5]; 5 mg/kg i.g.): 36.3%
- reduction of tumor volume [7]: 30.5%
